Data on 15 molecules can be found in US10730858B2, “Lactam, cyclic urea and carbamate, and triazolone derivatives as potent and selective rock inhibitors” (BRISTOL-MYERS SQUIBB COMPANY, priority 2016, dated 2020).

By IC50 is commonly meant the concentration that inhibits the measured activity by half. Read a low IC50 as greater potency.

The structures appear in SMILES notation. Like-named read-outs stand apart in the source and are kept apart here.

The target of one experiment is ROCK2 (Homo sapiens, UniProt O75116). The experiment can be described thus: ROCK2 assay (Caliper LABCHIP peptide phosphorylation, kinase inhibition). In kind it is biochemical. The settings on record: 5 μM ATP, 1.5 μM peptide substrate. The method, boiled down:
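Rho kinase reaction in 20 mM HEPES pH 7.5, 20 mM MgCl2, 0.015% Brij-35, 4 mM DTT with 5 μM ATP and 1.5 μM FITC-labelled peptide substrate (FITC-AHA-AKRRRLSSLRA-OH); DMSO final <2%. EDTA-stopped; phosphorylated and non-phosphorylated peptide separated by microfluidic mobility shift. IC50 from dose-response curve fit.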

In the next experiment the test system is neointimal formation. The settings on record: rats; cited from earlier work.
For experiment [1], the system named is rat models of hypertension. The settings on record: cited from earlier work.
Experiment [2] deals with congestive heart failure in Dahl salt-sensitive rats. The settings on record: rat, in vivo; cited from earlier work.
Another experiment relates to rat stroke model. The settings on record: in vivo; cited from earlier work.
In experiment [3] the test system is IL-1 beta-induced coronary stenosis. The settings on record: long term treatment; cited from earlier work.

Sequence of ROCK2 (O75116 whole entry, species assumed): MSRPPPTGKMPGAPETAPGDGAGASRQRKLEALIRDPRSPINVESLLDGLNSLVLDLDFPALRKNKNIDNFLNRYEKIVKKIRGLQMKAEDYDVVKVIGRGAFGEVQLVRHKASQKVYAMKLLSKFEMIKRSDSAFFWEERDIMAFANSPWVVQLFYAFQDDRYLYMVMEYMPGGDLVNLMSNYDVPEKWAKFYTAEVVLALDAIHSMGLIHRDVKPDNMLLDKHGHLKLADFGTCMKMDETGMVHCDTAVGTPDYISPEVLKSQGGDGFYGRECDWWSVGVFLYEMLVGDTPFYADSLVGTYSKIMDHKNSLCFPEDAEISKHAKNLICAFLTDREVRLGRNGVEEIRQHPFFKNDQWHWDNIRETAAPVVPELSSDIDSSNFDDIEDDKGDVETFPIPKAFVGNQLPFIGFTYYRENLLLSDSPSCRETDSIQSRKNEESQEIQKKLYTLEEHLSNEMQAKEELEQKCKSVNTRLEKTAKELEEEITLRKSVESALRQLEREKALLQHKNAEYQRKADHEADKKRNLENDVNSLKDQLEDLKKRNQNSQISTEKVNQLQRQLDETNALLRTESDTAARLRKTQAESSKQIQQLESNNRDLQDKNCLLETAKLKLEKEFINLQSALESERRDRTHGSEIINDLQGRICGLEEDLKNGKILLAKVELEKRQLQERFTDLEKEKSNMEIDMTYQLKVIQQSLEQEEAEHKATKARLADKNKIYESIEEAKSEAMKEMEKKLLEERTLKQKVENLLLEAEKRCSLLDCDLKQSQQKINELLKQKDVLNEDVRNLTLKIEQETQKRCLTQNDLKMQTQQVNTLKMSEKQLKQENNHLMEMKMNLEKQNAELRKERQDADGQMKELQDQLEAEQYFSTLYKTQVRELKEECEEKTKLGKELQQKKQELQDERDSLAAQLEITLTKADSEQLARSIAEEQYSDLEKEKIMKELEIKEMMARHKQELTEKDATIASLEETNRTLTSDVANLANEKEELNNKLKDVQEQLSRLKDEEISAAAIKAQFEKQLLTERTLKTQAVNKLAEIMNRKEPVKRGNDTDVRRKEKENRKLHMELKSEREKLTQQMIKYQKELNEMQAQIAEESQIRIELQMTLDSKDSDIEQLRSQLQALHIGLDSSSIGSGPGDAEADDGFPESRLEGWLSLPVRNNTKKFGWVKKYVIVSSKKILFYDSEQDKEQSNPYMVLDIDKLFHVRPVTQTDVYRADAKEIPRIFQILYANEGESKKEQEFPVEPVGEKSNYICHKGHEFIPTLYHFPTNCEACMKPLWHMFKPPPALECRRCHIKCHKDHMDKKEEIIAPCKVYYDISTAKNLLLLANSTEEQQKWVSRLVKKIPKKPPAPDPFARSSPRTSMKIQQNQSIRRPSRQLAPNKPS

On ROCK2, `Cn1ccc(NC2CCN(c3ccc(-c4n[nH]c(=O)c5ccccc45)cc3)C2=O)n1` (centres unmarked) [Example 65, 4-(4-{3-[(1-methyl-1H-pyrazol-3-yl)amino]-2-oxopyrrolidin-1-yl}phenyl)-1,2-dihydrophthalazin-1-one] registered an IC50 of 0.1 to 0.5 µM. In the case of `CS(=O)(=O)c1cccc(NC2CCN(c3ccc(-c4n[nH]c(=O)c5ccccc45)cc3)C2=O)c1` (centres unmarked) [Example 67, 4-(4-{3-[(3-methanesulfonylphenyl)amino]-2-oxopyrrolidin-1-yl}phenyl)-1,2-dihydrophthalazin-1-one], the IC50 against ROCK2 lay in the range of 0.01 to 0.1 µM. Still for that read-out and setting: then `CSc1cccc(NC2CCN(c3ccc(-c4n[nH]c(=O)c5ccccc45)cc3)C2=O)c1` (centres unmarked) [Example 68, 4-[4-(3-{[3-(methylsulfanyl)phenyl]amino}-2-oxopyrrolidin-1-yl)phenyl]-1,2-dihydrophthalazin-1-one], with 0.01 to 0.1 µM. Same read-out and setting: then `O=C1C(Nc2cccc(F)n2)CCN1c1ccc(-c2n[nH]c(=O)c3ccccc23)cc1` (centres unmarked) [Example 69, 4-(4-{3-[(6-fluoropyridin-2-yl)amino]-2-oxopyrrolidin-1-yl}phenyl)-1,2-dihydrophthalazin-1-one], with 0.01 to 0.1 µM; and `O=C1C(Nc2ccc3c(c2)CCNC3)CCN1c1ccc(-c2n[nH]c(=O)c3ccccc23)cc1` (centres unmarked) [Example 70, 4-(4-{2-oxo-3-[(1,2,3,4-tetrahydroisoquinolin-6-yl)amino]pyrrolidin-1-yl}phenyl)-1,2-dihydrophthalazin-1-one], with 0.1 to 0.5 µM. The same measure, in the same setting: then `CC(C)c1cc(NC2CCN(c3ccc(-c4n[nH]c(=O)c5ccccc45)cc3)C2=O)n(C)n1` (centres unmarked) [Example 71, 4-[4-(3-{[1-methyl-3-(propan-2-yl)-1H-pyrazol-5-yl]amino}-2-oxopyrrolidin-1-yl)phenyl]-1,2-dihydrophthalazin-1-one], with 0.01 to 0.1 µM; and `COc1cccc(Cn2c(C)nn(-c3ccc(-c4c[nH]c(=O)c5ccsc45)cc3)c2=O)c1` [Example 72, 4-[(3-methoxyphenyl)methyl]-3-methyl-1-(4-{4-oxo-3aH,4H,5H,7aH-thieno[3,2-c]pyridin-7-yl}phenyl)-4,5-dihydro-1H-1,2,4-triazol-5-one], with 0.5 to 2 µM. As to `N#Cc1ccnc(NC2CCN(c3ccc(-c4n[nH]c(=O)c5ccccc45)cc3)C2=O)c1` (centres unmarked) [Example 74, 2-({2-oxo-1-[4-(4-oxo-3,4-dihydrophthalazin-1-yl)phenyl]pyrrolidin-3-yl}amino)pyridine-4-carbonitrile], the IC50 against ROCK2 fell in the range of 0.01 to 0.1 µM. On the same count and under the same terms, then `CN1CCc2cc(NC3CCN(c4ccc(-c5n[nH]c(=O)c6ccccc56)cc4)C3=O)ccc2C1` (centres unmarked) [Example 75, 4-(4-{3-[(2-methyl-1,2,3,4-tetrahydroisoquinolin-6-yl)amino]-2-oxopyrrolidin-1-yl}phenyl)-1,2-dihydrophthalazin-1-one], with 0.5 to 2 µM; and `COc1cccc(OC2CCN(c3ccc(-c4n[nH]c(=O)c5ccccc45)cc3)C2=O)c1` (centres unmarked) [Example 86, 4-{4-[3-(3-methoxyphenoxy)-2-oxopyrrolidin-1-yl]phenyl}-1,2-dihydrophthalazin-1-one], with 0.01 to 0.1 µM.

On to `COc1ccc(F)c(OC2CCN(c3ccc(-c4n[nH]c(=O)c5ccccc45)cc3)C2=O)c1` (centres unmarked) [Example 87, 4-{4-[3-(2-fluoro-5-methoxyphenoxy)-2-oxopyrrolidin-1-yl]phenyl}-1,2-dihydrophthalazin-1-one], for which the IC50 on ROCK2 fell in the range of 0.01 to 0.1 µM. Same read-out and setting: then `COc1cc(OC2CCN(c3ccc(-c4n[nH]c(=O)c5ccccc45)cc3)C2=O)ccc1F` (centres unmarked) [Example 88, 4-{4-[3-(4-fluoro-3-methoxyphenoxy)-2-oxopyrrolidin-1-yl]phenyl}-1,2-dihydrophthalazin-1-one], with 0.01 to 0.1 µM. In the case of `COc1cc(F)cc(OC2CCN(c3ccc(-c4n[nH]c(=O)c5ccccc45)cc3)C2=O)c1` (centres unmarked) [Example 89, 4-{4-[3-(3-fluoro-5-methoxyphenoxy)-2-oxopyrrolidin-1-yl]phenyl}-1,2-dihydrophthalazin-1-one], the IC50 against ROCK2 was 0.01 to 0.1 µM. Regarding `C[C@@H](N)[C@H]1CC[C@H](C(=O)Nc2ccncc2)CC1` [Example Y-27632, Y-27632], the neointimal formation result in the experiment with neointimal formation was “inhibited neointimal formation”. Further, the blood pressure result is given as “only a minor effect” in experiment [1] (control rats); “significantly decrease blood pressure” in experiment [1] (spontaneously hypertensive rat, renal hypertensive rat and deoxycortisone acetate salt hypertensive rat models). Moreover, the “ventricular hypertrophy, fibrosis and function” value in experiment [2] was “improve ventricular hypertrophy, fibrosis and function”. As to `O=S(=O)(c1cccc2cnccc12)N1CCCNCC1` [fasudil], the “infarct size and neurologic deficit” value in the experiment on rat stroke model is “reduce both the infarct size and neurologic deficit”. Further, in experiment [3], the coronary constrictive remodeling result is given as “promote a regression of coronary constrictive remodeling” and the coronary stenosis entry is recorded as “progressively reduce coronary stenosis”.
